“Also recorded” adds a separate entry of the source. No end group written: not given here.
Columns and labels:
Type in all cases: in vivo, rat
[1] = system: rats, formalin-injected hind paw; assay: Formalin-induced flinching (paw formalin test); conditions: IT injection 3-30 μg 10 minutes prior to formalin; 30 μg: P<0.05 versus vehicle
Procedure: In recent work it was shown that inhibition of spinal p38 MAP kinase attenuated formalin-induced flinching. Svensson et al., J Neurochem 86: 1534-1544, 2003b. To examine the contribution of p38α and p38β in this experimental model of hyperalgesia, animals were injected with p38α, p38β AS or MS IT for five days. These animals were then examined on the formalin test. Unilateral intraplantar formalin solution (2.5%) caused a biphasic flinching pattern where the first 9 minutes are referred to as phase I and the following 50 minutes (min 10-60) as phase II. Yaksh et al., J Neurosci 21: 5847-5853, 2001a. The phase II flinching is considered to represent afferent input initiated spinal facilitation. Dickenson and Sullivan, Neurosci Lett 83: 207-211, 1987; Puig and Sorkin, Pain 64: 345-355, 1996. […] To further confirm the role of p38 to injury-induced pain behavior, a pharmacological inhibitor was also studied: SB203580, a p38α/β non-selective inhibitor.
To quantify formalin induced flinching, an automated sensing system was employed. Yaksh et al., J Appl Physiol 90: 2386-2402, 2001b. Briefly, a soft metal band was placed on the hind paw of the animal being tested. Animals were allowed to acclimate in individual Plexiglas chambers for 30 min before being moved to a test chamber. Just before the animals were placed into the test chamber, they were briefly restrained in a cloth towel, and 2.5% formalin (50 μl) was injected into the dorsal side of the banded paw. Nociceptive behavior was quantified by automatically counting the incidences of spontaneous flinching or shaking of the injected paw. The flinches were counted for 1-min periods for 60 minutes and the flinch data are expressed as number of flinches per min and total flinches observed during phase I (0-9 min) and phase II (10-60 min).

[2] = system: PGE2; assay: IT SP-evoked spinal PGE2 release (intrathecal dialysis, ELISA)
Excerpt: It was previously shown that intrathecal injection of SP and NMDA, but not vehicle, evokes PGE2 release assessed by spinal dialysis. Hua et al., Neuroscience 89: 525-534, 1999b.; Svensson et al., Neuroreport 14: 1153-1157, 2003a. It has been reported that PLA2 which generates free arachidonic acid necessary for eicosanoid synthesis, requires phosphorylation to become fully activated and that this phosphorylation can be mediated by p38 MAP kinase. Borsch-Haubold et al., Eur J Biochem 245: 751-759, 1997. The effect of spinal p38α/β inhibition was assessed on IT S P-evoked PGE2 release by injecting SB203580 15 min prior to IT SP. Resting release of PGE2 was determined after a washout period of 30 min. In the absence of pretreatment, baseline dialysate concentrations were determined to be 243±13 femtomol/100 μl perfusate (N=20). If SP (30 nmol) produced a 6-8 fold increase in PGE2 level in intrathecal CSF (FIG. 8A). […] If injection of vehicle prior to IT SP ad no effect on IT SP-evoked PGE2 release.
(A) Bar graph showing PGE2 concentration (fmol/100 μl) measured in cerebrospinal fluid collected by in vivo spinal dialysis of conscious rats before and after IT injection of substance P(SP, 30 nmol) and SB302580 (30 μg). Spinal dialysate is removed and assayed for PGE2 by ELISA at baseline (B, average of two 15 min fractions collected prior to IT injection of SP) and F1: 0-15 minutes, F2: 15-30 minutes and F3: 30-45 minutes and 45-60 minutes after SP injection. Rats received IT SP or IT SB203580 (α/βp38 inhibitor) 15 minutes prior to IT SP. (B) PGE2 release is presented as area under curve (AUC) calculated 60 minutes after IT injection of SP with or without pretreatment with p38 inhibitors. […] Each bar represents the average and SEM for 4-8 rats per group and (*) represents P<[…] versus baseline.
Intrathecal Dialysis & PGE2 assay. Dialysis experiments were conducted in unanethetized rats 4-5 days after the implant. […] The concentration of PGE2 in spinal dialysate was measured by ELISA using a commercially available kit (Assay Designs 90001, Assay Designs, Ann Arbor, Mich.). […]

[3] = system: rats, IT SP (spinal NK-1 receptors); assay: IT substance P-evoked thermal hyperalgesia (paw withdrawal latency, Hargreaves device); conditions: IT SP 30 nmol at T=0, versus IT saline
Procedure: (§1) Yaksh et al., Nature 286: 155-157, 1980; Yaksh, Trends Pharmacol Sci 20: 329-337, 1999. […] Malmberg and Yaksh, Science 257: 1276-1279, 1992; Svensson et al., J Neurochem 86: 1534-1544, 2003. […] To investigate the contribution of p38α and p38β to SP-evoked hyperalgesia and p38 phosphorylation, spinal delivery of p38α and p38β AS and MS was carried out. Thermal withdrawal latencies was assessed after IT injection of SP and lumbar spinal cords collected immediately to compare the degree of spinal p38 phosphorylation at the hypothesized time of peak phosphorylation. IT injection of SP into the MS group produced an expected reduction of thermal withdrawal latency in comparison with IT saline injection into to vehicle treated animals (FIG. 7C). […] In contrast, IT SP-induced thermal hyperalgesia was attenuated in rats which had received p38β AS (FIG. 7E). […] Stripping and reprobing the western blot membranes confirmed that p38α protein expression was knocked down in p38α AS treated group (FIG. 7D) as well as p38β in the p38β AS group (FIG. 7F).
Nociceptive models. To directly induce spinal sensitization, rats received intrathecal injections of sP (30 nmol) which activates spinal NK-1 receptors and produces thermal hyperalgesia. Hua et al., Neuroscience 89: 525-534, 1999a; Piercey et al., Science 214: 1361-1363, 1981; Yashpal and Henry, Can J Physiol Pharmacol 61: 303-307, 1983. Thermally evoked paw withdrawal responses were assessed using a Hargreaves type testing device. Dirig et al., J Neurosci Methods 76: 183-191, 1997. Briefly, rats were placed on a glass surface maintained at 30° C. The thermal nociceptive stimulus originates from a projection bulb below the glass surface, and the stimulus is delivered separately to one hind paw at a time. The animals were allowed to acclimatize on the glass surface and basal paw withdrawal latencies (PWL) were then assessed for left and right paws at time (T)=−40, =30 and −20 min and expressed as the mean of the six measurements. At T=−10 min the animals received intrathecal vehicle or drug and at T=0, sP was injected. Withdrawal latencies were then assessed at T=15, 30, 45 and 60 min. Paw withdrawal latency for each group was expressed as the mean at each time point.

[4] = system: phosphorylated p38 (P-p38); assay: IT substance P-evoked spinal p38 phosphorylation (Western blot); conditions: IT SP 30 nmol, at 30 min, N=6, P<0.05
Procedure: as §1
(A) Graph displaying paw withdrawal latency (PWL) plotted versus time. […] (B) Representative western blots showing levels of P-p38, total p38 and β-actin in lumbar spinal cord at different time points after IT injection of SP (30 nmol). IT-SP induced p38 phosphorylation peaks 30 minutes after SP injection. (C, E) Graph showing PWL assessed 15 and […] after bolus injection of IT saline or IT SP injection in rats treated with IT ACSF, MS (30 μg), p38α AS (30 fig) or p38β AS (20 μg) daily for five days. […] IT injection of MS or ACSF had no effect on IT SP-evoked thermal hyperalgesia. Each time point represents the mean ±SEM (n=4-5 per group). (D, F) Representative western blots showing the level of P-p38, p38α and p38β and β-actin protein expression assessed 30 minutes after IT SP injection.
Western blot. Prior to sacrifice, rats were deeply anesthetized and after decapitation the spinal cords were ejected from the vertebral column by a saline-filled syringe. The lumbar part of the spinal cord was immediately homogenized in extraction buffer (50 mM Tris buffer, pH 8.0, containing 0.5% Triton X-100, 150 mM NaCl, 1 mM EDTA, phosphatase and protease inhibitors) by sonication. […] After washing, the antibody-protein complexes were probed with appropriate secondary antibodies labeled with horseradish peroxidase for 1 hr at room temperature and detected with chemiluminescent reagents (SuperSignal, Pierce, Rockford, Ill.). […] Intensity of immunoreactive bands was quantified using ImageQuant software (Molecular Dynamics, Sunnyvale, Calif.). p38 immuno-positive bands were normalized relative to β-actin.

Row | Compound | flinching during phase II [1] | SP-evoked release of PGE2, AUC between groups ([2]; 30 μg IT prior to SP, AUC 60 minutes after IT SP, unpaired t-test P<0.05) | IT SP-evoked PGE2 release ([2]; pretreatment 30 μg IT, 15 min prior to IT SP 30 nmol) | paw withdrawal latency (PWL) after IT injection [3] | increase in PGE2 level in intrathecal CSF ([2]; IT SP 30 nmol, spinal dialysis, conscious rats) | phosphorylation of spinal p38, peak effect, increase as compared to saline group [4] [%]
1 | C[S+]([O-])c1ccc(-c2nc(-c3ccncc3)c(-c3ccc(F)cc3)[nH]2)cc1 (stereo not drawn) [SB203580, reference compound] | dose-dependent attenuation; also recorded: statistically different | significantly lower | prevented IT SP-evoked PGE2 release | – | – | –
2 | SP: substance P (Sigma), injected IT to activate spinal NK-1 receptors and produce thermal hyperalgesia (RPKPQQFFGLM-NH2; UniProt P20366 58-68, looked up) [reference compound] | – | – | – | transient decrease in PWL | 6-8 fold | 224±41
